Key:
Assay type in all cases: biochemical
[1] = tested on: thrombin; experiment: heparin cofactor activity (Schrader et al. 1986), Berichrom test kit, excess heparin and thrombin; conditions: purified protein, excess of heparin and thrombin
Experimental: As taught in Schrader et al., for the determination of the heparin cofactor activity of the AT III mutants with the test kit Berichrom® (Behringwerke AG, Marburg) a solution with the particular AT III mutant was incubated with an excess of heparin and thrombin. The produced AT III mutant-heparin-complex inhibits a part of the thrombin. The non-inactivated part of the thrombin cleaves the chromogenic substrate which was added to the solution and the amount of produced p-nitroaniline was measured at 405 nm photometrically.

[2] = tested on: bovine thrombin; experiment: progressive inhibitory activity (Hensen et al. 1963), rate of thrombin inactivation, clotting time; conditions: purified protein, without heparin
Experimental: As taught in Hensen et al., progressive inhibiting activity is measured by an antithrombin III assay according to the principle that the material to be tested is incubated with thrombin. The rate of thrombin inactivation is measured and is used as a standard of antithrombin III activity.
In the procedure, a bovine thrombin solution of 50 N.I.H. units/ml, stored at-25° C., after being thawed is kept as melting ice; 0.2 ml of this thrombin solution with 0.6 ml veronal buffer, in a siliconized tube, is placed in a waterbath at 37° C. After a minimum of 2 minutes preheating, 0.2 ml of the material to tested (heat-defibrinated plasma or serum or a plasma fraction) is added to the mixture, and a chronometer is started. Exactly 1, 3 and 5 minutes later, 0.2 ml of this incubation mixture is added to 0.3 ml diluted bovine BaSO4 -plasma which has been pre-heated in the waterbath for 2-20 minutes and kept in non-siliconized tubes. The clotting times obtained are registered. The determination is made in duplicate.
If the antithrombin III activity in the sample tested is found to be low (less than 50% of the normal), then the determination should be repeated with the double quantity of the material to be tested (0.4 ml and 0.4 ml veronal buffer).
In the calculation, three times are obtained per determination. […]

[3] = tested on: alpha-thrombin (human); experiment: dependence of thrombin inactivation on the heparin concentration
Experimental: The two mutants were examined for their relative ability to inactivate thrombin as a function of the heparin concentration in the assay and compared with AT III plasma, AT III-WT and the mutant AT III-Lys49 (Tab. 5).
The assay was carried out under the following conditions: 0.02 U (antigen)/ml AT III (AT III plasma, AT III-WT or AT III-Mut) was preincubated with 0.3 IU/ml alpha-thrombin (human), 2 KIU/ml aprotinin (Behringwerke) and heparin (Hoffmann-LaRoche) in concentrations of 0-25 IU/ml in a volume of I ml at 37° C. for 5minutes. After addition of 100 μl of substrate reagent (2 mM HD-CHA-But-Arg-pNA), the change in extinction at 405 nm (37° C.) was followed kinetically. The maximum inhibition of alpha-thrombin at heparin saturation was set equal to 100%.
Tab. 5 indicates the heparin concentration at half-maximum thrombin inhibition (c 1/2) for AT III plasma, AT III-WT and various AT III mutants.

[4] = biological target: elastase from human polymorphonuclear granulocytes (PMN elastase); experiment: PMN elastase inhibition assay (chromogenic substrate MeO-Suc-Ala-Ala-Pro-Val-pNA)
Experimental: The liberation of the paranitroaniline from the substrate was measured in a spectrophotometer as the increase in absorption at 405 nm within 15 min. This absorption was defined as 100% activity of the PMN elastase enzyme. The inhibitors were preincubated in concentrations increasing up to a maximum of 100 μg/ml with the enzyme for one hour. The enzyme reaction was then started with the substrate. The assay was carried out in 0.1 mol/1 HEPES, pH 7.5, +0.1 mol/1 sodium chloride. The substrate concentration was 0.13 mmol/1.

| Substance | HC, heparin cofactor activity [1] [U/mg] | PI, progressive inhibitory activity [2] [U/mg] | C 1/2 Heparin, heparin concentration at half-maximum relative thrombin inhibition ([3]; 0.02 U/ml AT III, 0.3 IU/ml alpha-thrombin, heparin 0-25 IU/ml, 5 min 37° C.) [mIU/ml] | inhibition of thrombin at low heparin concentrations ([3]; compared in words) | IC50, inhibition of PMN elastase ([4]; 1 h preincubation with enzyme, substrate 0.13 mmol/l, 0.1 mol/l HEPES pH 7.5 + 0.1 mol/l NaCl, max. 100 μg/ml) [µg/mL] | type of inhibition of PMN elastase ([4]; KI determination) |
| --- | --- | --- | --- | --- | --- | --- |
| ATIII-Gln135: AT III mutant with Asn→Gln exchange in position 135, lacking a carbohydrate side-chain | 4.5 | 3.9 | 22 | better than that of AT III plasma and AT III-WT | – | – |
| alpha1 PI: reference inhibitor alpha1 protease inhibitor (alpha1 antitrypsin) | – | – | – | – | 3.7 | non-competitive inhibition |
